# Tests used:
# IkB-α promoter = IkB-α promoter luciferase activity in transfected activated HSC; assay type: cell-based; conditions: 24 hours, rat HSC; for inhibition of IkB-α promoter activity compared with SFZ 1 mM: 3a 0.150 mM, 3e 0.127 mM, 3f 0.089 mM (at IC50)
# Method: (§1) For HSC transfections, activated HSC were transfected by the non-liposomal Effectene protocol (Qiagen, UK) using 1 μg reporter plasmid DNA and 10 ng of control Renilla plasmid pRLTK (Promega, Southampton, UK) according to the manufacturer's instructions. After 24 hours, HSC were treated with test compounds for a further 24 hours. Luciferase assays were performed using a dual luciferase kit (Promega) according to the manufacturer's instructions. Firefly luciferase activities were normalised for differences in transfection efficiency by measurement of the activity of the co-transfected pRLTK. The pIκBα wt-Luc plasmid contains nucleotides −332 to +35 of the human IkB-α promoter cloned upstream of luciferase gene (Oakley F, et al, J Biol Chem 2003; 278: 24359-70). The pTIMP1-Luc plasmid contains the 162 bp human TIMP1 minimal promoter cloned upstream of luciferase gene (Bertrand-Philippe M, et al. J Biol Chem 2004; 279: 24530-9). The pAP1-Luc plasmid (Stratagene, UK) contains 7 copies of a consensus AP-1 binding site upstream of the minimal promoter and the luciferase gene.
# (§2) To extend these findings, further analyses were performed using the […] promoter which contains multiple NF-kB binding sites and is a well studied NF-kB target. […] Consistent with the presence of activated NF-kB in HSC, (Wright M C et al, Gastroenterology 2001; 121: 685-98.) the IkB-α promoter was activated in HSC (FIG. 2a). SFZ (1 mM) inhibited promoter activity by >60%. […] Therefore, the improved inhibitory activity of analogues 3a, 3e and 3f is specific for NF-kB mediated transcription and is not restricted to U937 cells or artificial promoter constructs.
# (§3) Rat HSC were transfected with (A) IkB-α-Luc, (B) TIMP1-Luc or (C) pAP-1-Luc reporter constructs. After 24 hours, cells were treated with sulfasalazine (1 mM), 3a (0.150 mM), 3e (0.127 mM), 3f (0.089 mM), or treated with DMSO as a control. Luciferase activity was determined after another 24 hours. Data presented are mean luciferase activity (±SEM) relative to control cells (value set to 100), derived from two separate experiments, each performed in duplicate and using an independent preparation of HSC.
# TIMP1 promoter = TIMP1 promoter luciferase activity in transfected activated HSC; assay type: cell-based; conditions: SFZ 1 mM, 3a 0.150 mM, 3e 0.127 mM, 3f 0.089 mM, 24 hours, rat HSC
# Method: as §1, §2, §3
# [1] = tested on: AP-1 transcription factor binding sites; assay: AP-1 reporter construct luciferase activity in transfected activated HSC; assay type: cell-based; conditions: SFZ 1 mM, 3a 0.150 mM, 3e 0.127 mM, 3f 0.089 mM, 24 hours, rat HSC
# Method: as §1, §2, §3
# ARH77 cells = assay: Cell death in ARH77 cells, propidium iodide flow cytometry; assay type: cell-based; conditions: Homo sapiens, ARH-77; 20 hours, PI uptake; mean of two determinations ±SD; read-out: IC50 for induction of ARH77 cell death
# Method: A flow cytometry method was used to determine the ability of SFZ analogues to induce cell death in ARH77 cells. The proportion of cells that had lost plasma membrane integrity was used as a measure of cell viability. ARH77 (5×10^4) cells were incubated in a volume of 200 μl in 96 well plates with compound, an equivalent amount of DMSO or were left untreated as a control. After 20 hours, cells were washed in phosphate buffered saline (PBS), resuspended in PBS containing 1 μg/ml propidium iodide (PI) for 10 minutes. Cells were analysed using a FACSCalibur (BD Biosciences, Oxford, UK) using the FL2 channel. […] The proportion of cells with intense fluorescence as a proportion of total cells was calculated.
# To assess cell death promoting activity, the ability of SFZ and the analogues with enhanced NF-kB inhibiting activity (3a, 3e and 3f) to kill Epstein-Barr virus transformed human B-cells, which are dependent on NF-kB for survival was compared (Cahir-McFarland E D, Carter K, Rosenwald A, et al. Role of NF-kB in cell survival and transcription of latent membrane protein 1-expressing or Epstein-Barr virus latency III-infected cells. J Virol 2004; 78: 4108-4119). […] Dose response experiments were performed to determine IC50 values (FIG. 4b).
# ARH77 cells were incubated with various concentrations of SFZ, compounds 3a, 3e and 3f, DMSO as a solvent control, or were left untreated. […] (A) Representative histogram of fluorescence in untreated, DMSO or compound 3e (250 μM) treated cells. (B) Representative dose response experiment (□, untreated; ♦, DMSO; ▴, SFZ; ●, 3a; +, 3e; ×, 3f). Each data point is the mean of duplicate determinations (±SD). (C) Mean IC50 values (±SD) for induction of ARH77 cell death, derived from two independent experiments each performed in duplicate.
# CLL cells = assay: CLL apoptosis by PARP cleavage; assay type: cell-based, human; conditions: 6 hours; for PARP cleavage in CLL cells compared with SFZ: 0.5 mM, three patient samples
# Method: CLL apoptosis was quantified by analysing PARP which is cleaved by effector caspases during apoptosis. CLL cells isolated from three individual patients were recovered from storage in liquid nitrogen and cultured at a density of 1.25×10^6 cells in 1 ml of growth medium (RPMI 1640, 10% (v/v) FCS and antibiotics). After 1 hour, […] were treated with compounds. Cells were harvested 6 hours after addition of compound, resuspended in 1×SDS-PAGE sample buffer and sonicated prior to immunoblot analysis for PARP expression as described below. PARP cleavage was quantified by determining the amount of cleaved PARP as a percentage of total PARP expression by digital image analysis.
# The ability of SFZ and the analogues to induce CLL apoptosis was analysed. CLL cells from 3 individual patients were treated with SFZ for 6 hours and apoptosis was quantified by analysing PARP cleavage. […] The amount of apoptosis induced by SFZ and compounds 3a and 3f (at 0.5 mM) was compared.
# (A) CLL cells from three different patients were cultured in the presence of SFZ or compounds 3a and 3f (all at 0.5 mM), or DMSO as a solvent control. After 6 hours, the degree of PARP cleavage was determined as a measure of apoptosis. […] Note that compound 3f was not tested in cells from patient 3. (B) HSC were cultured in the presence of SFZ (1 mM), compounds 3a (0.150 mM), 3e (0.127 mM), 3f (0.089 mM), or DMSO as a solvent control. Analogues were used at the concentration that gave 50% inhibition of NF-kB transcriptional activity in U937 cells. After 20 hours, the proportion of apoptotic cells were visualised by acridine orange staining. Apoptotic cells were counted in five fields in duplicate for each concentration, in two independent experiments and results expressed as mean ±SEM,
inhibition of IkB-α promoter activity compared with SFZ 1 mM (IkB-α promoter),effect on activity of AP-1 reporter construct [1],Structure (SMILES),effect on TIMP1 promoter activity (TIMP1 promoter),IC50 (ARH77 cells),PARP cleavage in CLL cells compared with SFZ (CLL cells),inhibition at 1000 µM (IkB-α promoter; SFZ 1 mM),"induction of apoptosis (PARP cleavage) in CLL cells (CLL cells; cells from 3 patients, dose response)"
approximately equally effective,neither SFZ or the analogues interfered,"COc1ccc(CNS(=O)(=O)c2ccc(/N=N/c3ccc(O)c(C(=O)O)c3)cc2)cc1 [Compound 3a, 2-hydroxy-5-[4-(4-methoxy-benzylsulfamoyl)-phenylazo]-benzoic acid]",neither SFZ or the analogues interfered with TIMP1 promoter activity,499 ± 93 µM,induced more PARP cleavage than SFZ,–,–
approximately equally effective,neither SFZ or the analogues interfered,"Cc1cc(/N=N/c2ccc(S(=O)(=O)NCc3ccc(C(F)(F)F)cc3)cc2)cc(C(=O)O)c1O [Compound 3e, 2-hydroxy-3-methyl-5-[4-(4-trifluoromethyl-benzylsulfamoyl)-phenylazo]-benzoic acid]",neither SFZ or the analogues interfered with TIMP1 promoter activity,195 ± 38 µM,–,–,–
approximately equally effective,neither SFZ or the analogues interfered,"O=C(O)c1cc(/N=N/c2ccc(S(=O)(=O)NCc3ccc(C(F)(F)F)cc3)cc2)ccc1O [Compound 3f, 2-hydroxy-5-[4-(4-trifluoromethyl-benzylsulfamoyl)-phenylazo]-benzoic acid]",neither SFZ or the analogues interfered with TIMP1 promoter activity,407 ± 11 µM,induced more PARP cleavage than SFZ,–,–
–,neither SFZ or the analogues interfered,"O=C(O)c1cc(/N=N/c2ccc(S(=O)(=O)Nc3ccccn3)cc2)ccc1O [SFZ, Sulfasalazine, reference compound]",neither SFZ or the analogues interfered with TIMP1 promoter activity,1100 ± 250 µM,–,> 60%,induced dose dependent apoptosis
